Article PMC3431023 (Journal of medicinal chemistry, 2012)

Tests used:
nAChR [1] = format: in vivo; conditions: mouse, s.c., 30 min
nAChR [2] = format: in vivo; conditions: mouse, s.c.
α3β4-nAChR = α3β4-nAChR (Rattus norvegicus, UniProt P04757+P12392); format: cell-based; conditions: 100 µM compound, rat α3β4 in Xenopus oocytes
α4β2 = conditions: read-out: Antagonist Activity IC50 α4β2; cited from earlier work
nAChR [3] = assay: Antagonism of nicotine-induced antinociception, hot-plate test; format: in vivo; conditions: mouse
α4β2-nAChR [4] = biological target: T1, α4β2-nAChR (Rattus norvegicus, UniProt P09483+P12390); format: cell-based
Target sequence in this assay (P09483 31-630): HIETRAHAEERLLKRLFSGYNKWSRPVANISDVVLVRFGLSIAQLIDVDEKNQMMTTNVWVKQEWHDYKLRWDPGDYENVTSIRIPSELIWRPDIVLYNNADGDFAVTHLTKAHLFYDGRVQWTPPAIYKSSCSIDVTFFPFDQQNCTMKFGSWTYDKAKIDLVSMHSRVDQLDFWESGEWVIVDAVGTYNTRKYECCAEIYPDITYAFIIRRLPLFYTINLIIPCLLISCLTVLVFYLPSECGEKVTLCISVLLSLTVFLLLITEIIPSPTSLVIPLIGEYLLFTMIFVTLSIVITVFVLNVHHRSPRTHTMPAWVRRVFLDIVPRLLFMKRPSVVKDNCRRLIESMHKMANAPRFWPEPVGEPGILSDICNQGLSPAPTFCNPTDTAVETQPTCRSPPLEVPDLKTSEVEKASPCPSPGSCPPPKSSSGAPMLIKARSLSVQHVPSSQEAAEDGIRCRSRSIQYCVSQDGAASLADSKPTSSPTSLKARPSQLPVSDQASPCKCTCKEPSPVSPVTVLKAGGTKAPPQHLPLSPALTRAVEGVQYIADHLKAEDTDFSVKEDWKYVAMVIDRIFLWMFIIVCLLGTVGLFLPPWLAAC
Target sequence in this assay (P12390 25-500): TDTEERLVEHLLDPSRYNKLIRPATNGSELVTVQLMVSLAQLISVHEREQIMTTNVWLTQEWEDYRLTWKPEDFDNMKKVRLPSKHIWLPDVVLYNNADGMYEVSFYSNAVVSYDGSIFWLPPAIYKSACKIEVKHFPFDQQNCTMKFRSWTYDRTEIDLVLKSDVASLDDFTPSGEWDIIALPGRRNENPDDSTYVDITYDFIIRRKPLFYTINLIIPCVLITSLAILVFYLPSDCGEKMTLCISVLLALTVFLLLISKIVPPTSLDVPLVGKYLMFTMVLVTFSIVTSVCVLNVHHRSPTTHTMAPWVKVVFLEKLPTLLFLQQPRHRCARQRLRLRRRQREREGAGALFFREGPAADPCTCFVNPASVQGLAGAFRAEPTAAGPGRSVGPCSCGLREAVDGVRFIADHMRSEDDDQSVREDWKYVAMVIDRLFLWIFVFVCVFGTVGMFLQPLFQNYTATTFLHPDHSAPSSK

CPP produced by nicotine = conditions: rodents; cited from earlier work
[5] = test system: nicotine's ability to facilitate ICSS; conditions: rodents; cited from earlier work
nAChR [6] = format: in vivo; conditions: mouse, s.c., tested 5 min after injection
human α4β2-nAChRs = conditions: competitive antagonist of human α4β2-nAChRs; cited from earlier work
nAChR [7] = format: in vivo; conditions: mouse, s.c., tested 5 min after injection; (confidence limits)
[8] = test system: discriminative stimulus effects of nicotine; conditions: rodents; cited from earlier work
[9] = test system: nicotine self-administration; conditions: rodents; cited from earlier work
α4β2-nAChR [10] = biological target: T1, α4β2-nAChR; format: binding; conditions: Ki ratio
Target sequence in this assay (P12390 25-500): as above
Target sequence in this assay (P09483 31-630): as the sequence (P09483 31-630) above

Sequence of α3β4-nAChR (P04757 26-499): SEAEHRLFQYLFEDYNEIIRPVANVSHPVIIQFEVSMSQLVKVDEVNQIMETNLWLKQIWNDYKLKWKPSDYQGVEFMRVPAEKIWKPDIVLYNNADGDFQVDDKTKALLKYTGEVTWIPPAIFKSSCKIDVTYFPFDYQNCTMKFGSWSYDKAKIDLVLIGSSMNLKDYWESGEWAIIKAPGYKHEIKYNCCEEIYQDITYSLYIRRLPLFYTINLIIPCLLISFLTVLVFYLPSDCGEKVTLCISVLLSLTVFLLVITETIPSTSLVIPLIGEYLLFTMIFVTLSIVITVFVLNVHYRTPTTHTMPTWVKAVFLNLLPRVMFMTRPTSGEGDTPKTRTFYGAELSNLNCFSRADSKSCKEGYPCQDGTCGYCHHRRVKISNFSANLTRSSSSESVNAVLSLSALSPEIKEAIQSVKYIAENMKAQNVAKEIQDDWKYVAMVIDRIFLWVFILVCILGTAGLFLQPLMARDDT
Sequence of α3β4-nAChR (P12392 21-495): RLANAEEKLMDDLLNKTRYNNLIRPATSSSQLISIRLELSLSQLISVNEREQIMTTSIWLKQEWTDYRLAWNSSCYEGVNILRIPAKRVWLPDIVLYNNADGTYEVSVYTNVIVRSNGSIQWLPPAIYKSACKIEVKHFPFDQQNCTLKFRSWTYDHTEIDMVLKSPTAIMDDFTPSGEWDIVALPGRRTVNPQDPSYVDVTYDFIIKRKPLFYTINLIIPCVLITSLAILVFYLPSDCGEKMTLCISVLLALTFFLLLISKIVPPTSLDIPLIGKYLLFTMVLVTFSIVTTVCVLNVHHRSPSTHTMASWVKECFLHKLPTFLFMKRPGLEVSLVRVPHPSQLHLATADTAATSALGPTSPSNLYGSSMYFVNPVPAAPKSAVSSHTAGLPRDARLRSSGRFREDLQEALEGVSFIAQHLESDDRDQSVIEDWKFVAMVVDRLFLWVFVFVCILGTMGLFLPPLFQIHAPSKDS

Row | SMILES | ED50 Hypothermia (nAChR [1]) | ED50 Spontaneous Activity (nAChR [2]) | Agonist Activity (% of max ACh at 100 µM of Compd) α3β4 (α3β4-nAChR) | also measured
1 | N#Cc1ccc(-c2cc(C3CC4CCC3N4)cnc2F)cc1 (stereo not drawn) [Compound 5c, 2'-Fluoro-3'-(4-cyanophenyl)deschloroepibatidine] | no activity | no activity | low level of agonist activity | 
2 | c1cnc2cc3c(cc2n1)[C@@H]1CNC[C@H]3C1 [varenicline] |  |  |  | IC50 (α4β2): 200 ± 30 nM
3 | Fc1ncc(C2CC3CCC2N3)cc1-c1ccc(C(F)(F)F)cc1 (stereo not drawn) [Compound 5b, 2'-Fluoro-3'-(4'-trifluoromethylphenyl)deschloroepibatidine] | no activity | no activity | lacked agonist activity | AD50 Hot-Plate (nAChR [3]): antagonists in the hot-plate test; selectivity for α4β2- over α3β4-nAChR (antagonist potency) (α4β2-nAChR [4]; electrophysiology, IC50 ratio): no selectivity; selectivity for α4β2- over α7-nAChR (antagonist potency) (α4β2-nAChR [4]; electrophysiology, IC50 ratio): no selectivity
4 | CS(=O)(=O)c1ccc(-c2cc(C3CC4CCC3N4)cnc2F)cc1 (stereo not drawn) [Compound 5d, 2'-Fluoro-3'-(4-methanesulfonylphenyl)deschloroepibatidine] | no activity | no activity |  | AD50 Hot-Plate (nAChR [3]): antagonists in the hot-plate test
5 | O=S(=O)(c1ccc(-c2cc(C3CC4CCC3N4)cnc2F)cc1)C(F)(F)F (stereo not drawn) [Compound 5f, 2'-Fluoro-3'-(4-trifluoromethanesulfonylphenyl)deschloroepibatidine] |  | only active in the spontaneous activity test | low level of agonist activity | 
6 | NS(=O)(=O)c1ccc(-c2cc(C3CC4CCC3N4)cnc2F)cc1 (stereo not drawn) [Compound 5e, 2'-Fluoro-3'-(4-aminosulfonylphenyl)deschloroepibatidine] | no activity | no activity |  | 
7 | O=[N+]([O-])c1ccc(-c2cc(C3CC4CCC3N4)cnc2F)cc1 (stereo not drawn) [Compound 5a, 2'-fluoro-3'-(4-nitrophenyl)deschloroepibatidine] |  |  | low level of agonist activity | effect on CPP produced by nicotine (CPP produced by nicotine): blocked; effect on nicotine's ability to facilitate ICSS [5]: reduced; ED50 Hot-Plate (nAChR [6]): no functional activity; potency higher than that of dihydro-β-erythroidine (6) (human α4β2-nAChRs): 17 fold; ED50 Tail-Flick (nAChR [7]): no functional activity; effect on discriminative stimulus effects of nicotine [8]: attenuated; effect on i.v. nicotine self-administration [9]: dose-dependently blocked
8 | NC(=O)c1ccc(-c2cc(C3CC4CCC3N4)cnc2F)cc1 (stereo not drawn) [Compound 5g, 2'-Fluoro-3'-(4-carbamoylphenyl)deschloroepibatidine] | only active in the hypothermia and spontaneous activity tests | only active in the hypothermia and spontaneous activity tests | low level of agonist activity | Agonist Activity (% of max ACh at 100 µM of Compd) α4β2 (α4β2-nAChR [4]; 100 µM compound, rat α4β2 in Xenopus oocytes): low level of agonist activity; selectivity for α4β2 over α7 in radioligand binding assays (α4β2-nAChR [10]): > 15,000 fold
